How the values were obtained:
[1] = Metabolic stability in human liver microsomes; assay type: in vitro ADME; conditions: pH 7.4, 1 μM compound, 0.5 mg/mL protein, 37° C.; for half-life at 1 μM: read-out: Human liver microsomes t1/2
Procedure: (§1) Metabolic Stability Evaluation
(§2) Experiments in microsomes: Human liver microsomes: 0.5 mg/mL, Xenotech; Rat liver microsomes: 0.5 mg/mL, Xenotech; Coenzyme (NADPH/NADH): 1 mM, Sigma Life Science; Magnesium chloride: 5 mM, 100 mM phosphate buffer (pH 7.4).
(§3) Preparation of stock solution: Powder of the example compound was accurately weighed and dissolved in DMSO to 5 mM.
(§4) Preparation of phosphate buffer (100 mM, pH7.4): A pre-formulated 0.5M potassium dihydrogen phosphate (150 mL) was mixed with 0.5M dibasic potassium phosphate (700 mL). The pH of the mixture was adjusted to 7.4 with 0.5M dibasic potassium phosphate solution. The mixture was diluted 5-fold with ultrapure water before use, and magnesium chloride was added to obtain a phosphate buffer (100 mM) containing 100 mM potassium phosphate, 3.3 mM magnesium chloride, pH 7.4.
(§5) A NADPH regeneration system solution (containing 6.5 mM NADP, 16.5 mM G-6-P, 3 U/mL G-6-PD, 3.3 mM magnesium chloride) was prepared and placed on wet ice prior to use.
(§6) Preparation of stop solution: acetonitrile solution containing 50 ng/mL propranolol hydrochloride and 200 ng/mL tolbutamide (internal standard). 25057.5 μL of phosphate buffer (pH 7.4) was taken into a 50 mL centrifuge tube, to which 812.5 μL human liver microsomes were added, and mixed to obtain a liver microsome dilution solution with a protein concentration of 0.625 mg/mL. 25057.5 μL of phosphate buffer (pH 7.4) was taken into a 50 mL centrifuge tube, to which 812.5 μL SD rat liver microsomes were added, and mixed to obtain a liver microsome dilution solution with a protein concentration of 0.625 mg/mL.
(§7) Incubation of the samples: The stock solution of the respective compound was respectively diluted to 0.25 mM with an aqueous solution containing 70% acetonitrile, and used as a working solution, ready for use. 398 μL of the dilution solution of human liver microsomes or rat liver microsome were added to a 96-well incubation plate (N=2), respectively, and 2 μL of 0.25 mM working solution was added and mixed.
(§8) Metabolic stability assay: 300 μL of pre-chilled stop solution was added to each well of a 96-well deep well plate and placed on ice as a stop plate. The 96 well incubation plate and NADPH regeneration system were placed in a 37° C. water bath box, shaken at 100 rpm and pre-incubated for 5 min. 80 μL of incubation solution was taken out from each well of the incubation plate and added to the stop plate, mixed, and replenished with 20 μL of NADPH regeneration system solution as a 0-min sample. 80 μL of NADPH regeneration system solution was added to each well of the incubation plate to start the reaction and start counting. […] Separately, 100 μL of the reaction solution was taken at 10, 30, and 90 min reaction, respectively, added to a stop plate, and vortexed for 3 minutes to terminate the reaction. The stop plate was centrifuged at 5000×g at 4° C. for 4 min. 100 μL of the supernatant was added to a 96-well plate to which 100 μL of distilled water was previously added, mixed, and analyzed by LC-MS/MS.
(§9) Data analysis: The peak areas of the corresponding compound and internal standard were detected by LC-MS/MS system, and the ratio of the peak area of the compound to the internal standard was calculated.

[2] = Metabolic stability in rat liver microsomes; assay type: in vitro ADME; conditions: Sprague-Dawley (SD), pH 7.4, 1 μM compound, 0.5 mg/mL protein, 37° C.; for half-life at 1 μM: read-out: Rat liver microsomes t1/2
Procedure: as §1, §2, §3, §4, §5, §6, §7, §8, §9

Row | SMILES | microsomal CLint at 1 μM [1] | half-life at 1 μM [1] | microsomal CLint at 1 μM [2] | half-life at 1 μM [2]
1 | [2H]C([2H])(CNS(N)(=O)=O)Nc1nonc1/C(=N\c1ccc(F)c(Br)c1)NO [Compound 11] | < 9.6 µL/min/mg | > 2.5 h | 18.9 µL/min/mg | 1.22 h
2 | [2H]c1cc(F)c(Br)c([2H])c1/N=C(/NO)c1nonc1NCCNS(N)(=O)=O [Compound 22] | < 9.6 µL/min/mg | > 2.5 h | 19.6 µL/min/mg | 1.18 h
3 | [2H]c1cc(/N=C(/NO)c2nonc2NCCNS(N)(=O)=O)cc(Br)c1F [Compound 32, 4-({2-[(sulfamoyl)amino]ethyl}amino)-N-(3-bromo-4-fluoro-5-d-phenyl)-N′-hydroxy-1,2,5-oxadiazole-3-carboximidamide] | < 9.6 µL/min/mg | > 2.5 h | 21.3 µL/min/mg | 1.08 h
4 | [2H]C([2H])(CNc1nonc1/C(=N\c1ccc(F)c(Br)c1)NO)NS(N)(=O)=O [Compound 41, 4-({2-[(sulfamoyl)amino]-2,2-d2-ethyl}amino)-N-(3-bromo-4-fluorophenyl)-N′-hydroxy-1,2,5-oxadiazole-3-carboximidamide] | < 9.6 µL/min/mg | > 2.5 h | 21 µL/min/mg | 1.1 h
5 | [2H]C([2H])(Nc1nonc1/C(=N\c1ccc(F)c(Br)c1)NO)C([2H])([2H])NS(N)(=O)=O [Compound 47, 4-({2-[(sulfamoyl)amino]-1,1,2,2-d4-ethyl}amino)-N-(3-bromo-4-fluorophenyl)-N′-hydroxy-1,2,5-oxadiazole-3-carboximidamide] | < 9.6 µL/min/mg | > 2.5 h | 18.7 µL/min/mg | 1.23 h
6 | [2H]c1cc(F)c(Br)c([2H])c1/N=C(/NO)c1nonc1NC([2H])([2H])C([2H])([2H])NS(N)(=O)=O [Compound 57, 4-({2-[(sulfamoyl)amino]-1,1,2,2-d4-ethyl}amino)-N-(2,6-d2-3-bromo-4-fluoro-phenyl)-N′-hydroxy-1,2,5-oxadiazole-3-carboximidamide] | < 9.6 µL/min/mg | > 2.5 h | – | –
7 | [2H]c1c([2H])c(/N=C(/NO)c2nonc2NCCNS(N)(=O)=O)c([2H])c(Br)c1F [Compound 66] | < 9.6 µL/min/mg | > 2.5 h | 17.5 µL/min/mg | 1.32 h
8 | [2H]c1c([2H])c(/N=C(/NO)c2nonc2NC([2H])([2H])C([2H])([2H])NS(N)(=O)=O)c([2H])c(Br)c1F [Compound 71, 4-({2-[(sulfamoyl)amino]-1,1,2,2-d4-ethyl}amino)-N-(2,5,6-d3-3-bromo-4-fluoro-phenyl)-N′-hydroxy-1,2,5-oxadiazole-3-carboximidamide] | < 9.6 µL/min/mg | > 2.5 h | 20.5 µL/min/mg | 1.13 h

Continued, values first:

Row | microsomal CLint at 1 μM [1] | half-life at 1 μM [1] | microsomal CLint at 1 μM [2] | half-life at 1 μM [2] | SMILES
9 | < 9.6 µL/min/mg | > 2.5 h | 19.2 µL/min/mg | 1.2 h | [2H]c1cc(/N=C(/NO)c2nonc2NC([2H])([2H])C([2H])([2H])NS(N)(=O)=O)cc(Br)c1F [Compound 52]
10 | < 9.6 µL/min/mg | > 2.5 h | 22.6 µL/min/mg | 1.02 h | [2H]c1c([2H])c(/N=C(/NO)c2nonc2NCC([2H])([2H])NS(N)(=O)=O)c([2H])c(Br)c1F [Compound 76, 4-({2-[(sulfamoyl)amino]-1,1-d2-ethyl}amino)-N-(2,5,6-d3-3-bromo-4-fluoro-phenyl)-N′-hydroxy-1,2,5-oxadiazole-3-carboximidamide]
11 | < 9.6 µL/min/mg | > 2.5 h | 18.5 µL/min/mg | 1.25 h | [2H]c1cc(F)c(Br)c([2H])c1/N=C(/NO)c1nonc1NC([2H])([2H])CNS(N)(=O)=O [Compound 81, 4-({2-[(sulfamoyl)amino]-1,1-d2-ethyl}amino)-N-(2,6-d2-3-bromo-4-fluoro-phenyl)-N′-hydroxy-1,2,5-oxadiazole-3-carboximidamide]
12 | 9.6 µL/min/mg | 2.4 h | 20.1 µL/min/mg | 1.15 h | NS(=O)(=O)NCCNc1nonc1C(=NO)Nc1ccc(F)c(Br)c1 [Epacadostat, reference compound]

Reference: patent publication US11147802B2, “Substituted oxadiazole chemical compound and composition containing said chemical compound and use thereof” (Shenzhen TargetRx, Inc., priority 2016, dated 2021)
